Reference: publication PMC7063992, “Opossum Cathelicidins Exhibit Antimicrobial Activity Against a Broad Spectrum of Pathogens Including West Nile Virus” (Frontiers in Immunology, 2020)
No end group written: not given here.

Columns and labels:
[1] = system: Escherichia coli ATCC 25922; assay: microbe, parasite or virus in culture; assay type: cell-based; conditions: E. coli ATCC 25922
Method: (§1) Peptides corresponding to the predicted antimicrobial regions of ModoCath1 (ΔModoCath1, N-VKRTKRGARRGL […]-C), ModoCath5 (ΔModoCath5, N-[…]-C), ModoCath6 (ΔModoCath6, N-[…]-C) and PMAP36 (N-[…] PLGCG-C) were synthesized via solid-phase peptide synthesis and purified via high-performance liquid chromatography using a commercial service (GenScript, Piscataway Township, NJ, United States). The MIC of synthesized peptides was determined against a panel of bacteria comprising 3 gram-positive strains, Staphylococcus aureus ATCC 6538 (ATCC, Manassas, VA, United States), Bacillus cereus ATCC 10876, and Enterococcus faecalis ATCC 29212, and 3 gram-negative strains, Escherichia coli ATCC 25922, Pseudomonas aeruginosa ATCC 27853, and Salmonella typhimurium ATCC 14028. Ampicillin (Sigma Aldrich, St. Louis, MO, United States) and gentamicin sulfate (Sigma Aldrich) were used as controls for antimicrobial activity. The MIC was determined using a colorimetric method specified by the Microbial Viability Assay Kit-WST (Dojindo, Kumamoto, Japan) in accordance with the manufacturer’s protocol and the Clinical and Laboratory Standards Institute (CLSI) guidelines (2018). Briefly, four colonies of each bacterium were inoculated into 5 mL Luria-Bertani (LB) broth medium at 37°C for 4 to 6 h. The cells were washed with sterile saline (0.9% NaCl) twice and seeded in a single well of a 96-well plate at the cell density of 10^5 CFU/well. Subsequently, 180 μL/well of fresh Mueller-Hinton broth (MHB) was added to the plate. Different concentrations of each peptide and reference antibiotics were serially diluted in 10 μL of MHB and added to each well. The plate was incubated at 37°C for 6 h. Cation-adjusted MH broth (CAMHB) was used to culture E. faecalis. Subsequently, 10 μL of the coloring reagent was added, and cells were incubated at 37°C for 2 h. UV absorbance was measured for each well at 450 nm, using a microplate spectrophotometer (xMark spectrophotometer; Bio-Rad, Hercules, CA, United States). MIC values were determined when the difference in the optical density (OD) between treatments and blanks (media and coloring reagent only) decreased to < 0.05. Experiments were conducted in triplicate. […] The pH conditions were achieved by using acetic acid (Sigma Aldrich).

[2] = system: Staphylococcus aureus ATCC 6538; assay: microbe, parasite or virus in culture; assay type: cell-based; conditions: S. aureus ATCC 6538; MHB, 37°C 6 h + 2 h; triplicate
Method: as §1

MCF7 = assay: Mammalian cell cytotoxicity, WST-1; assay type: cell-based, human; conditions: 24 h, WST-1, triplicate
Method: (§2) Two mammalian cell lines, including human embryonic kidney cells (HEK293T) and human breast cancer cells (MCF7) were cultured in Dulbecco’s modified Eagle’s medium (DMEM; Hyclone^TM, Logan, UT, United States) supplemented with 10% FBS (Hyclone^TM) and 1% penicillin/streptomycin (Hyclone^TM) and incubated at 37°C and 5% CO2 up to 80% confluence. Cellular adherence to the substratum was disrupted using Accutase (Innovative Cell Technologies, San Diego, CA, United States). In total, 1 × 10^4 to 4 × 10^4 cells in each well of a 96-well plate containing 8, 16, 32, and 64 μg/mL of ModoCath peptides were incubated for 24 h at 37°C and 5% CO2. Additionally, HEK293T cells were incubated in the FBS-free medium. Triton X 100 (Sigma Aldrich) was used as a positive control for complete cell lysis, and untreated cells were used as the negative control. After incubation, the medium was removed from the wells, and 10 μL of coloring solution (Cell Proliferation Reagent WST-1^TM; Sigma Aldrich) and 100 μL of DMEM (Hyclone^TM) were added to the wells in accordance with the manufacturer’s protocol. Absorbance was measured for each well at 440 nm (peptide-treated and control) and 650 nm (background) and recorded as the OD, using a microplate reader (xMark^TM spectrophotometer; Bio-Rad). Cell viability was calculated using the following equation:
(§3) (1) CellViability(%)=100×(ODpeptide-ODbackground)/(ODnegative-ODbackground)
(§4) All experiments were performed in triplicate.

HEK293T = assay: Mammalian cell cytotoxicity, WST-1; assay type: cell-based, human; conditions: 24 h, WST-1, triplicate
Method: as §2, §3, §4

[3] = system: Human primary keratinocytes; assay: Viability of keratinocytes, XTT; assay type: cell-based; conditions: 24 h, XTT
Excerpt: The Ethics Committee of the Poitiers Hospital approved the use of human skin samples for research studies. All subjects provided written informed consent in accordance with the tenets of the Declaration of Helsinki. Normal abdominal or breast skin samples were obtained from patients undergoing plastic surgery and thoroughly washed with PBS free of calcium and magnesium (PBS; Gibco, Thermo Fisher Scientific, Waltham, MA, United States) after fat removal. The skin samples were minced into fragments of approximately 125 mm^2, using scalpel blades. Skin samples were incubated overnight at 4°C in a dispase solution (25 U/mL; Life Technologies, Carlsbad, CA, United States). Epidermal sheets were removed from the dermis, and keratinocytes were dissociated via trypsin digestion (trypsin-EDTA; Gibco) for 15 min at 37°C. The cell suspension was then filtered through a 280-μm sterile filter. DMEM (Gibco) supplemented with 10% (vol/vol) of FBS (Gibco) was added, and the suspension was centrifuged at 300 × g and 25°C for 10 min. Keratinocytes were seeded at a density of 10^7 cells in 75-cm^2 tissue culture flask in keratinocyte-serum free medium (K-SFM; Invitrogen, Carlsbad, CA, United States) supplemented with bovine pituitary extract (25 μg/mL; Invitrogen) and recombinant epidermal growth factor (EGF) (0.25 ng/mL; Invitrogen). The cultures were incubated at 37°C in a humidified atmosphere with 5% CO2 until 80% confluence and then stored frozen in liquid nitrogen until use. Finally, keratinocytes were seeded in sterile 24-well culture plates at 10^5 cells/well in K-SFM supplemented with bovine pituitary extract and EGF and cultured to 80% confluence. Cells were then starved overnight in K-SFM alone before stimulation.
Primary keratinocytes were cultured in 96-well plates at 4 × 10^4 cells per well in 0.1 mL K-SFM (Invitrogen) up to 80% confluence before being treated with various concentrations of ModoCath peptides for 24 h. Cell viability was assessed using the cell proliferation kit II (XTT; Roche, Basel, Switzerland) in accordance with the manufacturer’s protocol. The XTT labeling mixture was added after 24 h of incubation in the absence or presence of peptides at the indicated concentrations.

[4] = Control: MHB at pH 7.5 without any additives, value in brackets
[5] = value in brackets, MHB, 37°C 6 h + 2 h, triplicate

Sequence: VKRTKRGARRGLTKVLKKIFGSIVKKAVSKGV [ΔModoCath1]
- MIC ([1]; 1mM MgCl2, value in brackets): 0.14 µM
- MIC ([1]; 2.5mM CaCl2, value in brackets): 0.29 µM
- MIC ([1]; 4.5mM KCl, value in brackets): 0.14 µM
- MIC ([1]; 150mM NaCl, value in brackets): 0.14 µM
- MIC [1, 4]: 0.21 µM
- MIC ([1]; pH 7, value in brackets): 0.21 µM
- MIC [1, 5]: 0.21 µM
- MIC [2]: 3 (0.85) μg/mL
- Cell viability ± SD (MCF7; 8 μg/mL): 91.2 ± 2.5%
- Cell viability ± SD (MCF7; 16 μg/mL): 89.2 ± 0.6%
- Cell viability ± SD (MCF7; 32 μg/mL): 79.1 ± 1.8%
- Cell viability ± SD (MCF7; 64 μg/mL): 42.4 ± 2.1%
- Cell viability ± SD (HEK293T; 8 μg/mL, 37°C): 108.1 ± 9.9%
- Cell viability ± SD (HEK293T; 16 μg/mL): 105.5 ± 6.9%
- Cell viability ± SD (HEK293T; 32 μg/mL): 66.9 ± 5.0%
- Cell viability ± SD (HEK293T; 64 μg/mL): 55.7 ± 6.2%
- Cell viability ± SD ([3]; 8 μg/mL): 97.1 ± 2.9%
- Cell viability ± SD ([3]; 16 μg/mL): 91.4 ± 1.6%
- Cell viability ± SD ([3]; 32 μg/mL): 56.2 ± 8.4%
- Cell viability ± SD ([3]; 64 μg/mL): 5.8 ± 3.7%

Sequence: VRRSKRGIKVPSFVKKVLKDVVSESIS [ΔModoCath6]
- MIC ([1]; MHB, 10^5 CFU/well, 37°C 6 h + 2 h with coloring reagent, OD 450 nm, triplicate): 5 (1.64) μg/mL
- MIC [2]: > 32(10.51) μg/mL
- Cell viability ± SD (MCF7; 8 μg/mL): 89.2 ± 1.4%
- Cell viability ± SD (MCF7; 16 μg/mL): 93.2 ± 0.9%
- Cell viability ± SD (MCF7; 32 μg/mL): 92.8 ± 1.0%
- Cell viability ± SD (MCF7; 64 μg/mL): 95.2 ± 1.0%
- Cell viability ± SD (HEK293T; 8 μg/mL, 37°C): 103.8 ± 5.0%
- Cell viability ± SD (HEK293T; 16 μg/mL): 95.6 ± 8.4%
- Cell viability ± SD (HEK293T; 32 μg/mL): 89.0 ± 13.1%
- Cell viability ± SD (HEK293T; 64 μg/mL): 88.8 ± 8.1%
- Cell viability ± SD ([3]; 8 μg/mL): 98.0 ± 1.6%
- Cell viability ± SD ([3]; 16 μg/mL): 100.3 ± 1.3%
- Cell viability ± SD ([3]; 32 μg/mL): 101.0 ± 2.6%
- Cell viability ± SD ([3]; 64 μg/mL): 89.2 ± 7.2%

Sequence: WYQLIRTFGNLIHQKYRKLLEAYRKLRD [ΔModoCath5]
- MIC ([1]; 1mM MgCl2, value in brackets): 2.48 µM
- MIC ([1]; 150mM NaCl, value in brackets): 2.07 µM
- MIC [1, 4]: 1.38 µM
- MIC ([1]; pH 6, value in brackets): 0.69 µM
- MIC ([1]; pH 7, value in brackets): 1.38 µM
- MIC [1, 5]: 1.38 µM
- MIC [2]: 1.5 (0.41) μg/mL
- Cell viability ± SD (MCF7; 8 μg/mL): 98.4 ± 4.2%
- Cell viability ± SD (MCF7; 16 μg/mL): 84.6 ± 0.6%
- Cell viability ± SD (MCF7; 32 μg/mL): 28.4 ± 0.7%
- Cell viability ± SD (MCF7; 64 μg/mL): 10.3 ± 2.8%
- Cell viability ± SD (HEK293T; 8 μg/mL, 37°C): 93.7 ± 8.3%
- Cell viability ± SD (HEK293T; 16 μg/mL): 67.4 ± 3.1%
- Cell viability ± SD (HEK293T; 32 μg/mL): 47.8 ± 2.7%
- Cell viability ± SD (HEK293T; 64 μg/mL): 35.0 ± 0.8%
- Cell viability ± SD ([3]; 8 μg/mL): 98.1 ± 0.6%
- Cell viability ± SD ([3]; 16 μg/mL): 96.2 ± 3.5%
- Cell viability ± SD ([3]; 32 μg/mL): 79.1 ± 13.0%
- Cell viability ± SD ([3]; 64 μg/mL): 48.9 ± 15.5%
